Reference: patent publication US11434204B2, “Method for producing a polymorphic form of 3-[5-amino-4-(3-cyanobenzoyl)-pyrazol-1-yl]-N-cyclopropyl-4-methylbenzamide” (MEREO BIOPHARMA 1 LIMITED, priority 2016, dated 2022)
One block for each compound: values may come before it.

Experiments:
Assay type in all cases: physicochemical
[1] = Final polymorph after holding in different solvents at different temperatures
Experimental: Thus, preferably the solution of 3-[5-amino-4-(3-cyanobenzoyl)-pyrazol-1-yl]-N-cyclopropyl-4-methylbenzamide is not exposed to temperatures of greater than 70° C. for more than 24 hours, preferably not more than 12 hours, preferably not more than 6 hours.
Thus, it can be seen that at the higher temperatures of 70 and 80° C., conversion to Form B is effected, or a mixture of Form A and Form B are produced, particularly over longer periods of time. It can also be seen that the hydrate is formed when water is included in the solvent.

[2] = Hygroscopicity (statement, method not given)
[3] = Variable temperature XRPD of Form A
Experimental: The sample was placed in Anton-Paar TTK 450 chamber at 25° C. The temperature was controlled in-situ through the measurement files: p2853-vt, LRP-1301-39-01.dql, LRP-1301-42-01.dql, LRP-1301-42-02.dql. The sample was heated from 25° C. to 200° C. at 1° C./min. XRPD data were collected from 30° C. to 200° C. every 10° C. Approximately 40 mg of the sample was placed in a Ni-coated sample holder under ambient conditions. The sample was loaded at 25° C.
At 200° C., changes (shifts) in peak position in the high 2-theta region were observed. This may be attributed to the thermal expansion effect.

Final polymorph ([1]; 60° C., DMAC/H2O = 1/1, 1 day): hydrate | Final polymorph ([1]; 60° C., H2O, 1 day): hydrate | Final polymorph ([1]; 70° C., EtOH, 3 days): A + B | Final polymorph ([1]; 70° C., n-PrOH, 3 days): A + B
Compound: Cc1ccc(C(=O)NC2CC2)cc1-n1ncc(C(=O)c2cccc(C#N)c2)c1N [3-[5-amino-4-(3-cyanobenzoyl)-pyrazol-1-yl]-N-cyclopropyl-4-methylbenzamide]

Hygroscopicity [2]: non-hygroscopic | Temperature above which Form A converted to Form B on heating ([3]; variable temperature XRPD, heated from 25° C. to 200° C. at 1° C./min): above 100 °C
Compound: Cc1ccc(C(=O)NC2CC2)cc1-n1ncc(C(=O)c2cccc(C#N)c2)c1N [Form A, 3-[5-amino-4-(3-cyanobenzoyl)-pyrazol-1-yl]-N-cyclopropyl-4-methylbenzamide]

Solid form by XRPD after cooling to room temperature ([3]; after heating to 200° C.): remained unchanged
Compound: Cc1ccc(C(=O)NC2CC2)cc1-n1ncc(C(=O)c2cccc(C#N)c2)c1N [Form B, 3-[5-amino-4-(3-cyanobenzoyl)-pyrazol-1-yl]-N-cyclopropyl-4-methylbenzamide]
